# Test results from ChEMBL document CHEMBL4308841, “Synthesis, in vitro antiproliferative activity, and kinase inhibitory effects of pyrazole-containing diarylureas and diarylamides” (Eur J Med Chem, 2018).
# Experiments:
# CCRF-CEM = assay: Growth inhibition of human CCRF-CEM cells incubated for 48 hrs by sulforhodamine B assay; type: functional, cell-based
# K562 = assay: Growth inhibition of human K562 cells incubated for 48 hrs by sulforhodamine B assay; type: functional, cell-based; conditions: K562, 48 h
# NCI-H460 [1] = assay: Growth inhibition of human NCI-H460 cells incubated for 48 hrs by sulforhodamine B assay; type: functional, cell-based; conditions: NCI-H460, 48 h
# KM12 = assay: Growth inhibition of human KM12 cells incubated for 48 hrs by sulforhodamine B assay; type: functional, cell-based; conditions: KM12, 48 h
# Malme-3M = assay: Growth inhibition of human MALME-3M cells incubated for 48 hrs by sulforhodamine B assay; type: functional, cell-based
# UACC-62 [2] = assay: Growth inhibition of human UACC62 cells incubated for 48 hrs by sulforhodamine B assay; type: functional, cell-based; conditions: UACC-62, 48 h
# PC-3 = assay: Growth inhibition of human PC3 cells incubated for 48 hrs by sulforhodamine B assay; type: functional, cell-based; conditions: PC-3, 48 h
# OVCAR-4 [3] = assay: Growth inhibition of human OVCAR4 cells assessed as cell growth at 0.01 uM incubated for 48 hrs by sulforhodamine B assay relative to control; type: functional; conditions: OVCAR-4, 48 h, read-out: Activity
# NCI-H226 = assay: Growth inhibition of human NCI-H226 cells assessed as cell growth at 0.1 uM incubated for 48 hrs by sulforhodamine B assay relative to control; type: functional; conditions: NCI-H226, 48 h, read-out: Activity
# NCI-H522 = assay: Growth inhibition of human NCI-H522 cells assessed as cell growth at 0.1 uM incubated for 48 hrs by sulforhodamine B assay relative to control; type: functional; conditions: NCI-H522, 48 h, read-out: Activity
# HT-29 = assay: Growth inhibition of human HT-29 cells assessed as cell growth at 0.1 uM incubated for 48 hrs by sulforhodamine B assay relative to control; type: functional; conditions: HT-29, 48 h, read-out: Activity
# M14 = assay: Growth inhibition of human M14 cells assessed as cell growth at 0.1 uM incubated for 48 hrs by sulforhodamine B assay relative to control; type: functional; conditions: M14, 48 h, read-out: Activity
# MDA-MB-231 = assay: Growth inhibition of human MDA-MB-231 cells assessed as cell growth at 0.1 uM incubated for 48 hrs by sulforhodamine B assay relative to control; type: functional; conditions: MDA-MB-231, 48 h, read-out: Activity
# MDA-MB-468 = assay: Growth inhibition of human MDA-MB-468 cells assessed as cell growth at 0.1 uM incubated for 48 hrs by sulforhodamine B assay relative to control; type: functional; conditions: MDA-MB-468, 48 h, read-out: Activity
# MOLT-4 [4] = assay: Growth inhibition of human MOLT4 cells assessed as cell growth at 1 uM incubated for 48 hrs by sulforhodamine B assay relative to control; type: functional; conditions: MOLT-4, 48 h, read-out: Activity
# A549 = assay: Growth inhibition of human A549/ATCC cells assessed as cell growth at 1 uM incubated for 48 hrs by sulforhodamine B assay relative to control; type: functional; conditions: A549, 48 h, read-out: Activity
# SNB-75 = assay: Growth inhibition of human SNB75 cells assessed as cell growth at 1 uM incubated for 48 hrs by sulforhodamine B assay relative to control; type: functional; conditions: SNB-75, 48 h, read-out: Activity
# U-251 = assay: Growth inhibition of human U251 cells assessed as cell growth at 1 uM incubated for 48 hrs by sulforhodamine B assay relative to control; type: functional; conditions: U-251, 48 h, read-out: Activity
# LOX IMVI = assay: Growth inhibition of human LOXIMVI cells assessed as cell growth at 1 uM incubated for 48 hrs by sulforhodamine B assay relative to control; type: functional; conditions: read-out: Activity
# OVCAR-4 [5] = assay: Growth inhibition of human OVCAR4 cells assessed as cell growth at 1 uM incubated for 48 hrs by sulforhodamine B assay relative to control; type: functional; conditions: OVCAR-4, 48 h, read-out: Activity
# MCF7 = assay: Growth inhibition of human MCF7 cells assessed as cell growth at 1 uM incubated for 48 hrs by sulforhodamine B assay relative to control; type: functional; conditions: MCF7, 48 h, read-out: Activity
# MOLT-4 [6] = assay: Growth inhibition of human MOLT4 cells assessed as cell growth at 100 uM incubated for 48 hrs by sulforhodamine B assay relative to control; type: functional; conditions: MOLT-4, 48 h, read-out: Activity
# SR = assay: Growth inhibition of human SR cells assessed as cell growth at 100 uM incubated for 48 hrs by sulforhodamine B assay relative to control; type: functional; conditions: read-out: Activity
# NCI-H460 [7] = assay: Growth inhibition of human NCI-H460 cells assessed as cell growth at 100 uM incubated for 48 hrs by sulforhodamine B assay relative to control; type: functional; conditions: NCI-H460, 48 h, read-out: Activity
# HCC 2998 = assay: Growth inhibition of human HCC2998 cells assessed as cell growth at 100 uM incubated for 48 hrs by sulforhodamine B assay relative to control; type: functional; conditions: HCC 2998, 48 h, read-out: Activity
# HCT-15 = assay: Growth inhibition of human HCT15 cells assessed as cell growth at 100 uM incubated for 48 hrs by sulforhodamine B assay relative to control; type: functional; conditions: HCT-15, 48 h, read-out: Activity
# UACC-62 [8] = assay: Growth inhibition of human UACC62 cells assessed as cell growth at 100 uM incubated for 48 hrs by sulforhodamine B assay relative to control; type: functional; conditions: UACC-62, 48 h, read-out: Activity
# A498 = assay: Growth inhibition of human A498 cells assessed as cell growth at 100 uM incubated for 48 hrs by sulforhodamine B assay relative to control; type: functional; conditions: A498, 48 h, read-out: Activity
# [9] = read-out: LC50 (the source's name)
# [10] = read-out: pLC50 (the source's name) (converted)
compound,measurement,setting,value
O=C(Nc1cccc(-n2cc(-c3ccncc3)c(-c3cc(O)cc(Cl)c3)n2)c1)c1cc(C(F)(F)F)cc(C(F)(F)F)c1,GI50,CCRF-CEM; read-out: GI50,2.58 µM
same,CC50,CCRF-CEM; [9],> 100 µM
same,TGI,CCRF-CEM; read-out: TGI,> 100 µM
same,GI50,CCRF-CEM; read-out: pGI50 (converted),2.69 µM
same,CC50,CCRF-CEM; [10],> 100 µM
same,TGI,CCRF-CEM; read-out: pTGI (converted),> 100 µM
same,GI50,K562; read-out: GI50,3.24 µM
same,LC50,K562; read-out: LC50,> 100 µM
same,TGI,K562; read-out: TGI,> 100 µM
same,GI50,K562; read-out: pGI50 (converted),3.24 µM
same,LC50,K562; read-out: pLC50 (converted),> 100 µM
same,TGI,K562; read-out: pTGI (converted),> 100 µM
same,GI50,NCI-H460 [1]; read-out: GI50,3.04 µM
same,CC50,NCI-H460 [1]; [9],> 100 µM
same,TGI,NCI-H460 [1]; read-out: TGI,> 100 µM
same,GI50,NCI-H460 [1]; read-out: pGI50 (converted),3.02 µM
same,CC50,NCI-H460 [1]; [10],> 100 µM
same,TGI,NCI-H460 [1]; read-out: pTGI (converted),> 100 µM
same,GI50,KM12; read-out: GI50,1.96 µM
same,CC50,KM12; [9],> 100 µM
same,GI50,KM12; read-out: pGI50 (converted),1.95 µM
same,CC50,KM12; [10],> 100 µM
same,GI50,Malme-3M; read-out: GI50,3.59 µM
same,CC50,Malme-3M; [9],> 100 µM
same,TGI,Malme-3M; read-out: TGI,94.4 µM
same,GI50,Malme-3M; read-out: pGI50 (converted),3.72 µM
same,CC50,Malme-3M; [10],> 100 µM
same,TGI,Malme-3M; read-out: pTGI (converted),95.5 µM
same,IC50,UACC-62 [2],3.79 µM
same,GI50,UACC-62 [2]; read-out: GI50,3.79 µM
same,CC50,UACC-62 [2]; [9],> 100 µM
same,TGI,UACC-62 [2]; read-out: TGI,22.4 µM
same,GI50,UACC-62 [2]; read-out: pGI50 (converted),3.8 µM
same,CC50,UACC-62 [2]; [10],> 100 µM
same,TGI,UACC-62 [2]; read-out: pTGI (converted),28.2 µM
same,IC50,PC-3,2.28 µM
same,GI50,PC-3; read-out: GI50,2.28 µM
same,CC50,PC-3; [9],> 100 µM
same,TGI,PC-3; read-out: TGI,22.5 µM
same,GI50,PC-3; read-out: pGI50 (converted),2.29 µM
same,CC50,PC-3; [10],> 100 µM
same,TGI,PC-3; read-out: pTGI (converted),28.2 µM
same,growth at 0.01 µM,OVCAR-4 [3],96%
same,growth at 0.1 µM,NCI-H226,95%
same,growth at 0.1 µM,NCI-H522,30%
same,growth at 0.1 µM,HT-29,91%
same,growth at 0.1 µM,M14,93%
same,growth at 0.1 µM,MDA-MB-231,94%
same,growth at 0.1 µM,MDA-MB-468,95%
same,growth at 1 µM,MOLT-4 [4],78%
same,growth at 1 µM,A549,74%
same,growth at 1 µM,SNB-75,72%
same,growth at 1 µM,U-251,53%
same,growth at 1 µM,LOX IMVI,97%
same,growth at 1 µM,OVCAR-4 [5],101%
same,growth at 1 µM,MCF7,54%
same,growth at 100 µM,MOLT-4 [6],3%
same,growth at 100 µM,SR,-18%
same,growth at 100 µM,NCI-H460 [7],1%
same,growth at 100 µM,HCC 2998,-34%
same,growth at 100 µM,HCT-15,-47%
same,growth at 100 µM,UACC-62 [8],-35%
same,growth at 100 µM,A498,-2%
